Experimental data: publication PMC4226669, “Anti-cancer potency of tasquinimod is enhanced via albumin-binding facilitating increased uptake in the tumor microenvironment” (Oncotarget, 2014)
“Also recorded” adds a separate entry of the source. Where two headings read alike, the source gives them in different places.

What was measured:
[1] = tested on: human umbilical vein endothelial cells (HUVECs); test: 3D in vitro endothelial sprouting and tube formation assay; format: cell-based; conditions: for IC50: Homo sapiens, HUVEC, 3D-HUVEC sprouting assay, read-out: IC50 (concentration of drug which inhibits by 50% the endothelial sprouting)
Description: A three-dimensional (3D) in vitro endothelial sprouting and tube formation assay was utilized to define the anti-angiogenic potency of tasquinimod vs. these metabolites. In this 3D assay, human umbilical endothelial cells (i.e., HUVECs) are initially grown on microcarrier beads and the cell coated beads embedded in fibrin gels with media conditioned by normal human lung fibroblasts. Under these 3D-conditions, endothelial cells “sprout” producing 3D neovessel tubes with patent lumen within one week, Figure 4A - left panel. When tasquinimod is added at the initiation to these 3D-cultures, sprouting of the endothelial cells is inhibited, Figure 4B-right panel, with the potency for such inhibition, expressed as an IC50 value (i.e., the concentration of drug which inhibits by 50% the endothelial sprouting) of 0.5 μM, Figure 4C. […] Using this 3D-HUVEC assay, the potency (i.e., expressed as IC50) of tasquinimod metabolites to inhibit endothelial sprouting was compared to tasquinimod. […] To further confirm that tasquinimod itself and not the carboxamide-N-demethylated metabolite is the active drug, the response to ketoconazole alone and in combination with tasquinimod was tested in the 3D-endothelial sprouting assay.
The 3-dimensional (3D) in vitro angiogenic sprouting and tube formation assay was used as described previously. This 3D-endothelial sprouting assay was conducted using a minimum of 5 replicate wells per drug dose per experiment, repeated 3 independent times using human umbilical vein endothelial cells (HUVECs; Lonza Walkersville, Inc.) with modification that 20 μL of 10X concentrated Dulbecco's Modified Eagle's Media/10%FCS media conditioned by confluent human primary lung fibroblasts (Lonza) diluted to 200 μL of growth factor supplemented EGM-2 media (Lonza) was used instead of fibroblast co-culture.

[2] = Tissue distribution and metabolites in nude mice bearing CWR-22Rv1 cancers; format: in vivo, mouse; conditions: 4 hours post oral 5mg/kg tasquinimod; for concentration at 4 h: male, nude, mouse
Protocol: To determine the concentration of metabolites, nude mice bearing CWR-22Rv1 prostate cancers were orally administered with 5 mg/kg of ^14C- radiolabeled tasquinimod and 4 and 24 hours later, blood plasma and liver, kidney, and cancer tissue harvested and analyzed for determination of metabolites. […] The predominant metabolite is the O-demethylated quinoline compound, Figure 2A&B, but the concentration of the hydroxylated aromatic quinoline and the N-demethylated quinoline compounds, along with the O-demethylated quinoline compound are also higher in the liver than the blood at the time point studied, Figure 2B. Also in the kidney 40% of the drug is present as metabolites, with the concentration of the hydroxylated aromatic quinoline and the O-demethylated quinoline compounds being higher than in the blood, Figure 2B. In contrast, within the cancer > 80% of the total concentration of drug is present as parent tasquinimod, Figure 2B. Only the O-demethylated quinoline compound is present at a higher concentration in the cancer than blood, Figure 2B. The plasma concentration of total metabolites is < 10% at 4 hours, Figure 2B, and 24 hours post oral dosing with 5 mg/kg, Figure 2A.
Male nude mice bearing 200-300mm^3 CWR-22Rv1 cancers were given ^14C-labeled tasquinimod at a dose of 5 mg/kg via oral gavage. At times ranging from 30 min to 24 hour, groups of 4-6 mice were anaesthetized with ketamine and 1 ml of heparinized blood collected by cardiac puncture, followed by subsequent cardiac perfusion of saline to remove blood associated drug. An aliquot of liver, kidney, and cancer was removed, weighed and then homogenized. The radioactivity in 10 μL aliquots of tissue homogenates and blood plasma was determined using a liquid scintillation counter and used to calculate the total amount of tasquinimod plus its metabolites per gram of tissue or per ml of blood. The remaining sample volume was deproteinated with acetonitrile and the radioactivity of an aliquot of the supernatant determined and the remaining supernatant lyophilized, resuspended initially with 0.1mL dimethyl sulfoxide and diluted by the addition of 0.9mL deionized water prior to injection into the HPLC. The HPLC system consisted of Waters pumps using a Waters gradient controller to deliver mobile phase at a flow rate of 1mL per minute using a Supelcosil ABZ+ C18 column that is 150mm long by 4.6mm diameter and has 5μm particle size. The metabolites were separated using a linear gradient in which the starting mobile phase was 35% acetonitrile: 65% water: 0.1% Trifluoroacetic acid (TFA) increasing to 50% acetonitrile: 50% water: 0.1%TFA over 25 minutes, and then increased rapidly to 98% acetonitrile: 2% water: 0.1%TFA and held until 33 minutes before it is returned to the initial conditions for the next run. Fractions were collected and the radioactivity determined by scintillation counting. As controls, the individual elution time of non-radiolabeled standard solutions of the various tasquinimod metabolites was determined using UV absorption at 215nm. The results were expressed as concentration based upon tissue volume, assuming 1gram wet weight equals 1ml, or normalized to tissue vascular volume.

[3] = tested on: CWR-22Rv1 human prostate cancer xenografts; test: Dose-response growth inhibition of established CWR-22Rv1 xenografts (subcutaneous daily injection); format: in vivo, mouse; conditions: 20 days
Protocol: To confirm these in vitro results, mice were inoculated subcutaneously (SQ) with CWR-22Rv1 cells and remained untreated until the tumors grew to ~ 200 mm3 (i.e., ~ 200 mgs) and then they were randomly assigned to groups (n=10) which were injected SQ daily with 100 μl of propylene glycol vehicle only vs. vehicle delivering 0.1 or 1 mg/kg/day of either tasquinimod or its carboxamide-N-demethylated metabolite. Propylene glycol was used as vehicle due to the low water solubility of the carboxamide-N-demethylated metabolite. After 20 days of continuous treatment, the experiment was terminated and the total weight of each cancer determined and the results expressed both as average tumor weight in grams and as the ratio of the weight of the cancers in the treated vs. vehicle control animals (i.e., T/C ratio), Figure 5A.
(§1) The source, history, and characteristics of the human prostate cancer cell lines (i.e., LNCaP, LAPC4, and CWR-22Rv1 and the human umbilical vascular endothelial cells (HUVEC) used, as well as cell culture conditions for their in vitro maintenance and the in vivo protocol for their xenografting into immune-deficient nude male mice are as described previously. The source, history, and characteristics of the TRAMP-C2 mouse prostate cancer line, as well as cell culture conditions for their in vitro maintenance and the in vivo protocol for their growth in intact adult male syngeneic C57Bl/6J are as described previously. All lines were mycoplasma negative using the MycoSensor PCR Assay kit (Agilent Technologies) and genetically authenticated within the last 6 months using short tandem repeat profiling conducted by the Johns Hopkins Genetic Resource Core Facility. The source, history, and characteristics of the CWR-RH human prostate cancer xenograft are as described previously. In vitro growth curves were determined as described. Animal studies were conducted according to animal protocol MO09M434 approved by Johns Hopkins Animal Care and Use Committee. Daily drug dosing via oral gavage, the drinking water, or subcutaneous injection, as well as tumor volume measurements and determination of the blood vessel density within cancers, were as described previously. These experiments were repeated at 3 independent times for each xenograft.

HUVEC cells = test: In vitro cell metabolism in HUVEC; format: in vitro ADME, human; conditions: HUVEC exposed to 1 μM 14C-labeled tasquinimod, 48 hours
Protocol: The nuclear uptake results are consistent with tasquinimod being the active drug for both direct therapeutic effects on cancer cells and indirect effects via suppression of the angiogenic response of host endothelial cells. To confirm these conclusions, the concentration of tasquinimod metabolites produced by endothelial cells was compared to the potency of these metabolites for inhibiting angiogenesis. When HUVEC cells are exposed to 1 μM of ^14C-labeled tasquinimod for 48 hours, < 15% of the drug is metabolized with 10% (i.e., 100 nM) being converted to the quinoline-O-demethylated compound and < 2% (i.e., < 20 nM) being converted to the quinoline-N-demethylated or carboxamide-N-demethylated compounds.
For in vitro studies, cells were incubated with 1μM ^14C-labeled tasquinimod for indicated time period and then the media and cells or cell nuclei separately harvested, deproteinated with acetonitrile, and metabolites separated by HPLC and quantitated as described above.

Water solubility = format: physicochemical
[4] = tested on: CWR-22RH human prostate cancer; test: Tumor take of CWR-22RH xenografts in castrated nude mice; format: in vivo, mouse
Protocol: To confirm this conclusion, castrated male nude mice were xenografted with the castrate resistant CWR-22RH human prostate cancer tissue and the animals immediately randomized into groups (n=10) which were: 1) left untreated as controls; 2) given daily oral treatment with tasquinimod alone via the drinking water (10mg/kg/day); 3) given oral ketoconazole alone via oral gavage at a daily dose which inhibits cytochrome P450 3A4 (i.e., 25 mg/kg/day); or 4) given a combination of the two drugs. […] These combined in vitro/in vivo results document tasquinimod, not one of its metabolites, is the active drug.
as §1

CYP-3A [5] = tested on: CYP-3A; set-up: method as in PMID 15764719; conditions: read-out: IC50 for inhibition of CYP-3A; cited from earlier work
CYP-3A [6] = tested on: CYP-3A; set-up: method as in PMID 21391977; conditions: oral dose of 25mg/kg/day; cited from earlier work
[7] = CWR-22Rv1 cancer tissue, CWR-22Rv1 cancer, 1gm tissue = 1ml, read-out: concentration in CWR-22Rv1 cancer
[8] = kidney, 1gm tissue = 1ml, read-out: concentration in kidney
[9] = liver, 1gm tissue = 1ml, read-out: concentration in liver
[10] = plasma, read-out: concentration in plasma

SMILES	IC50 [1] [µM]	percentage of total drug in CWR-22Rv1 cancer ([2]; CWR-22Rv1 cancer)	percentage of total drug in kidney ([2]; kidney)	percentage of total drug in liver ([2]; liver)	concentration at 4 h [2, 7] [nM]	concentration at 4 h [2, 8] [nM]	concentration at 4 h [2, 9] [nM]	concentration at 4 h [2, 10] [nM]	percentage of total drug in plasma ([2]; plasma)	concentration of metabolite formed (HUVEC cells) [nM]	fraction of tasquinimod converted to the metabolite (HUVEC cells) [%]	further results
COc1cccc2c1c(O)c(C(=O)Nc1ccc(C(F)(F)F)cc1)c(=O)n2C [Carboxamide-N-demethylate]	0.25	< 1%	< 1%	< 1%	< 30	< 30	< 130	< 60	< 1%	< 20	< 2	fold more potent than tasquinimod (lower IC50) in inhibiting endothelial sprouting ([1]; relative to tasquinimod): 2 fold; Avg Tumor Weight ([3]; 0.1 mg/kg/day SQ): 0.891 ± 0.263 g; T/C Ratio ([3]; 0.1 mg/kg/day SQ): 0.512; Avg Tumor Weight ([3]; 1 mg/kg/day SQ): 0.724 ± 0.223 g; T/C Ratio ([3]; 1 mg/kg/day SQ): 0.415; water solubility (Water solubility): low
COc1cccc2[nH]c(=O)c(C(=O)N(C)c3ccc(C(F)(F)F)cc3)c(O)c12 [Quinoline-N-demethylate]	20	< 1%	< 1%	2+/-1%	< 30	< 30	260	< 60	< 1%	< 20	< 2	
CN(C(=O)c1c(O)c2c(O)cccc2n(C)c1=O)c1ccc(C(F)(F)F)cc1 [Quinoline-O-demethylate]	30	17+/- 4%	36+/-4%	62+/-7%	460	1400	8100	300	5+/-1%	100	10	
CC(=O)N1CCN(c2ccc(OCC3COC(Cn4ccnc4)(c4ccc(Cl)cc4Cl)O3)cc2)CC1 (stereo not drawn) [ketoconazole]												effect of ketoconazole on tasquinimod's inhibition of 3D HUVEC sprouting ([1]; 10 μM ketoconazole simultaneously present with 1 μM tasquinimod): does not affect; also recorded: does not prevent inhibition; also recorded: does not suppress; inhibition of endothelial sprouting ([1]; ketoconazole alone, 10 μM): did not inhibit; effect of ketoconazole on anti-cancer efficacy of tasquinimod ([4]; ketoconazole 25 mg/kg/day combined with tasquinimod 10mg/kg/day): does not affect; also recorded: does not inhibit the therapeutic efficacy of tasquinimod; also recorded: does not suppress; tumor take and growth ([4]; ketoconazole alone 25 mg/kg/day via oral gavage from inoculation): does not inhibit either the take or growth; IC50 (CYP-3A [5]): […]; inhibition of CYP-3A (CYP-3A [6]): > 90%
